The record followed here is ChEMBL document CHEMBL4433265, “Discovery of human lactate dehydrogenase 5 inhibitors (hLDH5) with anti-lung cancer activity through an in silico method and biological validation” (Bioorg Med Chem Lett, 2019).

Calls of active or inactive are those of the source. No cut-off for these calls is given here.

The subject of data set [1] is NCI-H1975. Nature of the data set: Growth inhibition of human NCI-H1975 cells at 50 uM incubated for 72 hrs by MTT assay. Type of data set: functional. As to conditions: for inhibition of growth at 50 µM: NCI-H1975, 72 h, read-out: GI.
For the next data set, the system named is A549. As to the kind of experiment: Growth inhibition of human A549 cells at 50 uM incubated for 72 hrs by MTT assay. Type of data set: functional. The following applies: for inhibition of growth at 50 µM: A549, 72 h, read-out: GI.
Data set [2] has as its target T1, L-lactate dehydrogenase A chain (Homo sapiens, UniProt P00338). As to the kind of experiment: Inhibition of His-tagged human LDHA at 10 uM incubated for 10 mins using NADH and pyruvate by microplate reader based assay.
Data set [3] deals with NCI-H1975. Nature of the data set: Growth inhibition of human NCI-H1975 cells at 10 uM under normal oxygenated conditions by IncuCyte zoom live cell analysis. Type of data set: cell-based. As to conditions: nci-h1975, 10 µM.
The target in data set [4] is T1, L-lactate dehydrogenase A chain. As to the kind of experiment: Binding affinity to His-tagged human LDHA in absence of NAD+ by isothermal titration calorimetry.
For data set [5] the target is unchanged. Nature of the data set: Binding affinity to His-tagged human LDHA in presence of NAD+ by isothermal titration calorimetry.
Data set [6] has the same target. As to the kind of experiment: Inhibition of His-tagged human LDHA incubated for 10 mins using NADH and pyruvate by microplate reader based assay.
For data set [7] the target is unchanged. Nature of the data set: Inhibition of LDHA in human NCI-H1975 cells assessed as reduction in lactate production incubated for 4 hrs. In kind it is cell-based.
In data set [8] the test system is NCI-H1975. As to the kind of experiment: Growth inhibition of human NCI-H1975 cells at 10 uM under hypoxic conditions by IncuCyte zoom live cell analysis. Type of data set: functional, cell-based.
Data set [9] has as its system NCI-H1975. Nature of the data set: Growth inhibition of human NCI-H1975 cells under hypoxic conditions by IncuCyte zoom live cell analysis. Type of data set: functional, cell-based.
Data set [10] relates to NCI-H1975. Nature of the data set: Growth inhibition of human NCI-H1975 cells under normal oxygenated conditions by IncuCyte zoom live cell analysis. Type of data set: cell-based.

For `O=C(c1cc2n(n1)CCCO2)N1CCC(N2CCN(c3ncccc3C(F)(F)F)CC2)CC1`, the “growth inhibition (GI)” value in the data set on NCI-H1975 [1] and with A549 was “inactive” each time. In addition, the inhibition entry in data set [2] was “inactive”.
On to `COc1cccc(OCC(=O)Nc2ccc3c(c2)NC(=O)C(C)(C)CO3)c1`, for which the inhibition of growth at 50 µM with NCI-H1975 [1] turned out to be 15.3%; in the data set on A549 it was 26.9%. In addition, the inhibition entry in [2] was “inactive”.
For `O=C(CNC1CCN(c2ncc(F)cn2)CC1)COCc1ccccc1`, in that order: 39.8%, 55.3% and 45.8%.
As to `COc1cc(=O)n2c(c1CCCc1cc(OC)c(OC)c(OC)c1)CCC2`, the “growth inhibition (GI)” value with NCI-H1975 [1] and in the data set with A549 was “inactive” throughout. Also, in data set [2], the inhibition came out at 25.7%.
As for `O=C(NCC(=O)N1CCC(Cc2nc(C3CC3)no2)CC1)c1ccccc1`, the “growth inhibition (GI)” value in the data set with NCI-H1975 [3] was “Non-Toxic”. The figures for the inhibition of growth at 50 µM in the data set on NCI-H1975 [1] and with A549 were 58.7% and 69.3%, respectively. Besides, the Kd amounted to 43.2 µM in data set [4] and 1.02 µM in data set [5]. A half-maximal effect in data set [6] (EC50) was put at 0.7 µM. Further, the inhibition result in data set [7] was “Dose-dependent effect”; in data set [2] it was 95.2%. Further, the “growth inhibition (GI)” value in the data set with NCI-H1975 [8] is “Active”. Also, the values for the IC50 in the data set on NCI-H1975 [9] and in the data set with NCI-H1975 [10] were 5.7 µM and 36.5 µM, respectively.
As to `O=C(c1cc2n(n1)CCCC2)N1CCN(C(=O)C2(c3cccs3)CCCC2)CC1`, the “growth inhibition (GI)” value with NCI-H1975 [1] and with A549 was “inactive” each time. Moreover, in data set [2], the inhibition entry was “inactive”.
With `O=C1N[C@](c2ccc(N3CCOCC3)cc2)(c2ccsc2)CC(O)=C1Sc1ccccc1Cl`, the inhibition of growth at 50 µM with NCI-H1975 [1] and with A549 was 100% each time. Further, the inhibition in data set [2] turned out to be 100%.
With `Cc1ncn(CC(=O)N2CCC(Oc3cncc(N(C)C)n3)C2)c(=O)c1C` (stereo not drawn), the “growth inhibition (GI)” value with NCI-H1975 [1] and in the data set with A549 was “inactive” each time. Further, the inhibition in data set [2] amounted to 66.3%.
On to `COc1ccccc1OCC(=O)NC1CCC(Oc2nc(C)cc(C)n2)CC1` (stereo not drawn), for which the inhibition of growth at 50 µM stood at 45.2% in the data set with NCI-H1975 [1] and 23.3% in the data set on A549. This compound came in with an inhibition in [2] of 78.5%.
For `N#Cc1cccnc1N1CCC(CNC(=O)C(=O)Nc2cccc(C(F)(F)F)c2)CC1`, in that order: 25.9%, 33.5% and “inactive”.
